Source: US6355785B1, “Guanosine-rich oligonucleotide integrase inhibitors” (Aronex Pharmaceuticals, Inc., priority 1993, dated 2002)
Where two headings read alike, the source gives them in different places.

Legend:
in vitro = settings: human
HIV-1DV = test: Analysis of HIV-1 RNA and DNA in single cycle assays, SUP T1; type: cell-based
[1] = tested on: HIV-1 strains (SKI, RF, DV, IIIB, ADP/141); settings: previously reported by Ojwang et al.; cited from earlier work
SIVMAC251 = type: cell-based, simian immunodeficiency virus; settings: SIVMAC251, MT4; read-out: IC50 virus production
[2] = Oligomer folding by circular dichroism; settings: KCl, 25° C., 20 mM Li3PO4
HIV-2 integrase = target: T1, HIV-2 integrase (Human immunodeficiency virus type 2 subtype A, UniProt P04584); test: HIV-2 integrase 3′-processing assay; type: biochemical; settings: HIV-1 DNA
T1 construct: A plasmid encoding the HIV-2 integrase was generously provided by Dr. R. H. A. Plasterk; made in house
T1 sequence (P04584 1172-1464): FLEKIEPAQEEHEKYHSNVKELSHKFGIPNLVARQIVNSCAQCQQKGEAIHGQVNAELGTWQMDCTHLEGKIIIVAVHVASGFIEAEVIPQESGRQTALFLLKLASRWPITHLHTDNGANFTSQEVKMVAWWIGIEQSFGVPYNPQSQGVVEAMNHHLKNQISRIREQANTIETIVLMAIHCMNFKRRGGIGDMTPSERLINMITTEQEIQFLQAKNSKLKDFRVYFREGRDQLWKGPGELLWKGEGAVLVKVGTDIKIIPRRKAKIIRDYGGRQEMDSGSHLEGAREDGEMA

HIV-2 (ROD, EHO) = test: HIV-2 infection assay in MT4 cells; type: cell-based; settings: read-out: IC50 virus production
FIV integrase = target: T2, FIV integrase (Feline immunodeficiency virus, UniProt P16088); test: FIV integrase 3′-processing assay; type: biochemical
T2 construct: Purified recombinant wild-type FIV and SIV integrases were generous gifts; purchased gift of Dr. S. Chow (UCLA) (not bought)

HIV-1RF = test: HeLa-CD4-LTR-β-galactosidase cell virus infection assay; type: cell-based

With `Cc1cn([C@H]2C[C@H](N=[N+]=[N-])[C@@H](CO)O2)c(=O)[nH]c1=O` [AZT, 3′-azido-3′-deoxythymidine] the CC50 (in vitro) was about 10000 nM, the “viral DNA synthesis (PCR)” value (HIV-1DV; 36 hr post-infection) was “marked decrease in viral DNA synthesis” and the “HIV-1 specific transcript (RT-PCR)” value (HIV-1DV; drug added at zero hours) was “viral mRNA was still being produced”.
In the case of “5′-gtggtgggtgggtgggt-3′ [T30177] (GTGGTGGGTGGGTGGGT; phosphorothioate termini, further chemistry not given here) [pPT version of parent compound I100-15, 17 mer]”, the IC50 virus-induced cytopathogenicity (Punta Toro virus; Punta Toro virus) is reported as over 200 µg/mL, the “MCC minimum concentration altering normal cell morphology” value (Punta Toro virus; Punta Toro virus assay) is reported as over 200 μg/mL and the IC50 virus-induced cytopathogenicity (Tacaribe) is reported as over 50 µg/mL. The “MCC minimum concentration altering normal cell morphology” value (Tacaribe) was over 50 μg/mL, the IC50 [1] was 75 nM and the IC50 (SIVMAC251) was 1500 ± 1200 nM.
In the case of “5′-gtggtgggtgggtgggt-3′ (GTGGTGGGTGGGTGGGT; phosphorothioate termini, further chemistry not given here) [T30177, pPT version of parent compound I100-15, 17 mer]”, the “midpoint of K+ induced folding transition (CD, 264 nm)” value [2] is reported as 0.15 mM, the IC50 (HIV-2 integrase) is reported as 90 nM and the IC50 (HIV-2 (ROD, EHO); HIV-2EHO) is reported as 5980 ± 1050 nM. The IC50 (HIV-2 (ROD, EHO); HIV-2ROD) was 27500 ± 11600 nM, the IC50 (FIV integrase) was 175 nM and the IC50 (HIV-1RF; HIV-1RF, read-out: IC50 β-galactosidase production, virus infection assay) was 9 nM. The “direct effect on β-galactosidase enzyme activity” value (HIV-1RF; up to 10 μM, control experiment) was “no observable direct effect”.
